Source: patent US6599918B2, “Substituted (aminoiminomethyl or aminomethyl) dihydrobenzofurans and benzopyrans” (Aventis Pharmaceuticals Inc., priority 1999, dated 2003)
Where a name gives a salt, the structure may show the parent alone. Where no end group is shown, it is not given here.

Columns and labels:
[1] = system: neointimal proliferation after vascular injury; details: rabbit carotid artery air-drying injury; cited from earlier work
[2] = system: human cultured vascular smooth muscle cells; details: cited from earlier work
[3] = system: rat cultured vascular smooth muscle cells; details: cited from earlier work

melting point	Compound	further results
167 to 169 °C	CC(C)(C)c1ccc(C(=O)NCCC2COc3ccc(C(=N)N)cc32)cc1 (stereo not shown) (as salt: salt) [Example 1b, 4-tert-Butyl-N-(2-[5-carbamimidoyl-2,3-dihydrobenzofuran-3-yl]ethyl)benzamide]	
209 to 210 °C	CC(C)(CN)c1ccc(C(=O)NCCC2COc3ccc(C(=N)N)cc32)cc1 (stereo not shown) (as salt: salt) [Example 1c, 4-(2-Amino-1,1-dimethylethyl)-N-(2-[5-carbamimidoyl-2,3-dihydrobenzofuran-3-yl]ethyl)benzamide]	
54 to 56 °C	N=C(N)c1ccc2c(c1)C(CCNC(=O)c1ccc(-c3ccccn3)s1)CO2 (stereo not shown) [Example 1a, 5-(Pyridin-2-yl)-thiophene-2-carboxylic acid (2-[5-carbamimidoyl-2,3-dihydrobenzofuran-3-yl]ethyl)amide]	

The remaining lines, values behind:

Compound	melting point	further results
CC(=N)N1CC[C@H](Oc2ccc([C@H](Cc3ccc4ccc(C(=N)N)cc4c3)C(=O)O)cc2)C1 [DX-9065a]		neointimal proliferation [1]: less neointimal proliferation
CCC(C)(C)c1ccc(S(=O)(=O)NCCC2COc3ccc(C(=N)N)cc32)cc1 (stereo not shown) [Example 1aar, 3-{2-[4-(1,1-Dimethylpropyl)benzenesulfonylamino]ethyl}-5-carbamimidoyl-2,3-dihydrobenzofuran]	52 to 56 °C	
TAP: TAP, cited as example that the mitogenic effect of Factor Xa depends on Factor Xa enzymatic activity (YNRLCIKPRDWIDECDSNEGGERAYFRNGKGGCDSFWICPEDHTGADYYSSYRDCFNACI; ends and bridges not checked; cysteine pairing not given here; UniProt P17726 1-60, looked up)		mitogenesis of cultured vascular smooth muscle cells [2]: inhibited the mitogenesis; mitogenesis of cultured vascular smooth muscle cells [3]: inhibited the mitogenesis
